Molecules are shown by their SMILES.

Cytotoxicity data for 99 compounds are collected here from ChEMBL document CHEMBL3507680, “University of Dundee, Gates Library screen for HepG2 cell viability”.

This data set is described as follows: Human HepG2 cell viability assay in 384 well format. It is filed as toxicity, cell-based. The arrangement: dose 125 nL, time 70.5 hour; cytotoxicity at 70.5 h: concentration not given beside the values. The note with it: HepG2 cells, read-out: Inhibition.
Turning to `Cc1ccc(OCCN2CCC(c3ccnn3CCO)CC2)cc1`, the cytotoxicity at 70.5 h came out at 3.29%.
In the case of `CN(C)Cc1cn(-c2ccccc2C(=O)NCC2CCCCN2C)cn1` (centres undefined), the cytotoxicity at 70.5 h was determined as 25.3%.
Take `Cn1ccnc1CCNS(=O)(=O)c1cccc(Br)c1`: the cytotoxicity at 70.5 h was -2.62%.
As for `CC(C)NC(=O)N1CCN(Cc2ccccn2)CC2(CC(=O)N(C)C2)C1` (centres undefined), the figure is 22.3%; as for `CC(C)c1nc(C2CCCN2CCN2CCCCC2)no1` (centres undefined), -5.16%.
To `O=C(C1CCOCC1)N1C[C@H]2CCC[C@@]2(COc2ccccn2)C1` belongs -11.3%.
Take `CC(=O)N1C[C@@H]2CN(S(=O)(=O)C3CC3)CCO[C@@H]2C1`: the cytotoxicity at 70.5 h was -1.33%.
To `Cc1cc(N(C)Cc2ccsc2)n2nc(C)c(C)c2n1` belongs -10.9%.
To `CN(C)C(=O)N1CCN(C(=O)Nc2nc(-c3ccccc3)ns2)CC1` belongs -5.92%.
As for `CC(=O)N1CCN(C(=O)NCc2csc(Br)c2)CC1`, the figure is -9.87%; as for `OCCn1cc(CN2CCN(CCOCC(F)(F)F)CC2)cn1`, 6.14%.
In the case of `Cc1ccccc1C(C(=O)NCCSC(C)C)N(C)C` (centres undefined), the cytotoxicity at 70.5 h was -9.38%.
As for `CN1CSC[C@H]1C(=O)N1CCC(CCc2ccccc2)CC1`, the figure is -5.84%; as for `CC(C)[C@@H]1CN(C(=O)c2ccsc2)C[C@H]1C(=O)O`, -6.74%.
As for `CCn1nc(C)c(CNC(=O)C2COc3ccccc3C2)c1C` (centres undefined), the figure is -8.01%; as for `N#CCCn1cnc2c(Br)cc(Br)cc2c1=O`, -3.9%.
In the case of `O=C(NCc1ccc(Cl)s1)c1ccc(N2CCOC2=O)cc1`, the cytotoxicity at 70.5 h is -7.09%.
Regarding `CN(C)CC1CN(c2ncnc3[nH]ccc23)CCO1` (centres undefined), the cytotoxicity at 70.5 h was determined as 5.61%.
On to `CC1=C[C@@H](CN2CCOCC2)[C@H](C(C)C)C[C@H]1Cc1nnc(C)o1`, for which the cytotoxicity at 70.5 h is -5.39%.
Turning to `O=C(CN1CCN(CC2CCOc3ccccc3C2)CC1)N1CCCC1` (centres undefined), the cytotoxicity at 70.5 h was -13%.
As for `Cc1cc(C(=O)N(C)CC(F)(F)C(F)(F)F)ccc1-n1cncn1`, the figure is 2.03%; as for `O=C(O)c1cnc(N2CCC(O)CC2)nc1COc1ccc(F)cc1`, -21.6%; as for `Cc1cc(C2CCCN(C(=O)c3ccc(OCC4CC4)nc3)C2)n[nH]1` (centres undefined), -4.64%.
To `CCc1ccc(C(=O)N2CCC(c3nncn3CC)CC2)o1` belongs -6.22%; to `Cn1cc(C2=NOC(C(=O)NC3(c4cccc(F)c4)CCCC3)C2)cn1` (centres undefined), -4.3%; to `Oc1ccc([C@H]2Oc3cc(O)cc(O)c3C[C@@H]2O)cc1`, -11.9%.
On to `CCc1nc(CN(C)C2CCN(CCc3ccncc3)C2)no1` (centres undefined), for which the cytotoxicity at 70.5 h is -1.6%.
To `CN(C)C1COC2(CCN(Cc3nccs3)CC2)C1` (centres undefined) belongs -4.71%; to `COc1ccc(C(=O)NCCCNc2ccc(C(F)(F)F)cn2)cc1`, -17.2%.
As for `COC(=O)c1ccc(C(=O)NCC2(O)CCOCC2)cc1`, the figure is 33.7%; as for `Cc1nn(C)cc1CN1CCCC1c1cccc(Nc2nccs2)n1` (centres undefined), 35.9%; as for `COCC(=O)Nc1ccc(N2CCC(OC)CC2)c(C(F)(F)F)c1`, -0.835%.
As for `COc1ccc2c(c1)CN(Cc1nc3ccsc3c(=O)[nH]1)CC2`, the figure is 5.83%; as for `CC(=O)N1CCC(c2ncc(C(=O)Nc3ccc(F)cc3)c(C)n2)CC1`, 12.6%.
With `CCc1nnc2n1CCN(C(=O)Cc1nc(-c3ccco3)oc1C)C2`, the cytotoxicity at 70.5 h turned out to be 10.8%.
Consider `COc1cc(OC)c2nc(NCCN3CCNC3=O)cc(C)c2c1`, for which the cytotoxicity at 70.5 h was 2.59%.
As for `CN1CCC2(CCCN(c3nccc(C(F)(F)F)n3)C2)CC1`, the figure is -11.3%; as for `NC(=O)C1(Cc2ccccc2-c2ccccc2)CCCN(CC2CC2)C1` (centres undefined), -14.5%; as for `Cc1c(NC(=O)N(C)CCn2cnnc2)cccc1OC1CCCC1`, -4.56%.
To `Cc1ccccc1N1CCN(C(=O)CSc2ccncc2)CC1=O` belongs -8.48%.
Turning to `OC1(CNCc2ccc(F)c(C(F)(F)F)c2)CCOC1` (centres undefined), the cytotoxicity at 70.5 h is -2.64%.
Regarding `N#CCCN(Cc1cccnc1)C(=O)c1ccc(OCC2CC2)cc1`, the cytotoxicity at 70.5 h was -4.18%.
To `CC1=C(c2ccc(Cl)cc2)S(=O)(=O)N=C1N1CCc2ccccc21` belongs -2.07%; to `C[C@@H]1CN(C(=O)c2cnc(C3CC3)nc2)CC[C@@]1(O)C1CCOCC1`, -8.12%; to `Cc1ccc(F)cc1C(=O)N1C[C@@H](CN2CCOCC2)[C@@H](CO)C1`, -6.59%.
As for `Cc1occc1C(=O)N1Cc2nccn2CC(CN2CCOCC2)C1` (centres undefined), the figure is -6.67%; as for `CN1[C@H](CN2CCCC2)C[C@@H]2CN(C(=O)Cc3ccsc3)CC[C@@H]21`, -10.6%; as for `CC(C)COCCCNC(=O)c1cccnc1N1CCOCC1`, 4.2%.
As for `Cn1cc(-c2cnc(N3CCCC3)nc2)cc1C(=O)N1CCOCC1`, the figure is -27.4%; as for `O=C(CCC1CCCO1)NCCCO` (centres undefined), -18.3%; as for `Cc1ncsc1CN1C[C@@H]2COC[C@]2(C(=O)NCc2ccccn2)C1`, -9.2%.
With `CCCN(CCC)c1nc(N)nc(-c2cc(Cl)ccc2OC)n1`, the cytotoxicity at 70.5 h was -2.85%.
As for `CCN1CCN(CCCNc2ncccn2)CC1`, the figure is 9.52%; as for `CNC(=O)c1cccnc1NCc1ccc(Cn2cccn2)cc1`, -3.1%; as for `Cc1nc(C)n(C2CCCN(C(=O)c3cccc4[nH]ncc34)C2)n1` (centres undefined), -6.19%.
To `O=C(Cc1csc(-c2ccoc2)n1)NCCCN1CCCCC1` belongs -5.46%.
For `O=C(CC[C@@H]1CCCN2CCCC[C@H]12)NCCc1cc(O)ncn1`, the cytotoxicity at 70.5 h was -11.3%.
For `O=C(CC1=CSC2=NCCN12)N1CCCC(CCc2cccc(F)c2)C1` (centres undefined), the cytotoxicity at 70.5 h is -13.5%.
As to `Cc1nnc(NCc2ccc(SC(F)F)cc2)o1`, the cytotoxicity at 70.5 h is 14.2%.
On to `O=C1[C@H]2CN(C3CCOCC3)C[C@H]2CN1Cc1cccnc1`, for which the cytotoxicity at 70.5 h came to 3.06%.
To `Cc1nccn1CC(=O)N1CC(Cc2nccc3ccn(C)c23)C1` belongs -9.67%.
As for `CC(Cn1cc(Br)cn1)C(=O)Nc1ccc(C(N)=O)cc1` (centres undefined), the figure is 7.39%; as for `COc1ccnc(N2CCN(C(=O)c3cccc(C#N)c3)CC2)n1`, -7.44%.
For `Cc1cnn(C2CN(CC(=O)NCCc3ccccc3)C2)c1`, the cytotoxicity at 70.5 h is -16.2%.
As for `CCCc1cc(NC(=O)c2cc(N3CCNC3=O)c(F)cc2F)n[nH]1`, the figure is 1.56%; as for `CNS(=O)(=O)CCCN1CCCC1c1noc(C2CC2)n1` (centres undefined), -6.19%; as for `COCc1noc(CN2CCCCC2CCc2cccs2)n1` (centres undefined), -14.8%.
To `CN(Cc1cccc(F)c1)C(=O)CN1CCOC(Cn2cccn2)C1` (centres undefined) belongs -2.5%.
As to `CC(C)CC(=O)N1CC[C@@H]2CN(CC(=O)N(C)C)S(=O)(=O)[C@@H]2CC1`, the cytotoxicity at 70.5 h came to 1.05%.
To `CCOc1cc(C)nc(N2CCN(C(=O)c3cc[nH]n3)CC2)n1` belongs -3.5%; to `COc1cc(CNCc2ccnc(N3CCCC3)c2)cc(OC)c1`, 1.37%; to `CCCOc1cc(C)ccc1NC(=O)NCCNC(=O)C(C)C`, 25.7%.
As for `COCC1c2c(cnn2CC2CC2)CCN1Cc1nccs1` (centres undefined), the figure is -4.64%; as for `CCSCCC(=O)NS(=O)(=O)c1ccc2c(c1)OCCO2`, -13.7%; as for `CCc1nc2n(n1)CC(NCc1cnc(-c3ccccc3)nc1)CC2` (centres undefined), 29.3%.
Regarding `Cc1cc(C)n(CC2CCCCN2CCc2ccncc2)n1` (centres undefined), the cytotoxicity at 70.5 h came to 4.66%.
Take `Fc1ccc(CN2CCn3cc(Cn4cccn4)nc3C2)cc1`: the cytotoxicity at 70.5 h is -20.8%.
To `O=C(Cc1ccsc1)N1C[C@@H]2OCCN(c3cnccn3)[C@@H]2C1` belongs 12.1%; to `O=C1NCCN1C1CCN(Cc2nc(-c3ccsc3)no2)CC1`, 32.4%.
To `O=C(NCCn1ccc(-c2ccncc2)n1)c1ccncc1` belongs -2.74%.
As for `COc1ccc(Cl)cc1CS(=O)(=O)CC(=O)NC(C)CCC(C)C` (centres undefined), the figure is -11.8%.
Take `O=C(c1ccncc1)N1CCCn2nnc(COCCO)c2C1`: the cytotoxicity at 70.5 h is -5%.
To `CO[C@@]1(C)C[C@@H](O)C12CCN(C(=O)c1ccccc1C(C)=O)CC2` belongs -7.26%; to `Cn1ccnc(Nc2ccc3c(c2)CCN3C(=O)c2cccnc2)c1=O`, -11.5%; to `COCCN1CCO[C@@H]2CN(Cc3ccc(C)o3)C[C@@H]2C1`, 1.59%.
To `COc1cc(F)ccc1-c1ncccc1NC(=O)C(C)C` belongs -7.03%; to `O=C(COc1ccccc1F)NCCC(O)c1ccoc1` (centres undefined), -4.07%; to `CC(C)(C)C(=O)N1C[C@@H]2COC[C@]2(c2nnc(C3CC3)o2)C1`, -8.33%.
To `Cc1noc(C)c1CN1CCN(C)c2ncccc2C1` belongs -5.95%; to `Cc1nc(CC(=O)N2CCN(C(C)c3ccccc3F)CC2)cs1` (centres undefined), -5.6%.
For `CCOc1ccc(CC(=O)N2CCN(c3nccn3CC)CC2)cc1`, the cytotoxicity at 70.5 h was -1.22%.
Regarding `CS(=O)(=O)CCN1CCC(Nc2c(Cl)cccc2C#N)CC1`, the cytotoxicity at 70.5 h is -94%.
To `O=C1NC(c2ccccc2)=N[C@@]12CC[C@@H]1CN(Cc3ccccc3)C[C@@H]12` belongs 0.309%; to `COc1cccc2c1ccn2CCNC(=O)C1CCC1`, -13.3%.
To `Cn1c(=O)[nH]c(=O)n2c(CC(=O)Nc3c(Cl)cccc3Cl)cnc12` belongs -14.2%.
`Cc1nc(C)n(CC2CN(CCCOc3ccccc3C)CCO2)n1` (centres undefined): the cytotoxicity at 70.5 h worked out at 11.3%.
For `CCc1nc(NCCn2cccn2)c2c(n1)c(C)nn2C`, the cytotoxicity at 70.5 h is -7.14%.
As for `O=S1(=O)NC(c2ccnc(N3CCCC3)n2)=Nc2ccccc21`, the figure is -3.65%; as for `COc1ccc(CCN)cc1-c1ccc(C(N)=O)cc1`, -6.83%.
